From PMC7759686, “Pharmacokinetics and Immunological Effects of Romidepsin in Rhesus Macaques” (Frontiers in Immunology, 2020)

Columns and labels:
[1] = test system: H3 and H4 histone acetylation in peripheral CD4+ and CD8+ T cells; assay: Histone acetylation assay (flow cytometry); assay type: in vivo, rhesus macaques (Macaca mulatta); details: 7 mg/m^2 4-h IV infusion
Procedure: The efficacy of RMD treatment was assessed by monitoring histone acetylation of frozen PBMCs: at the baseline, 6 h postinfusion, and 1, 2, and 5 days postinfusion, using a flow-cytometrical method, as described ([41]). Briefly, separated PBMCs were stained for surface markers for 20 min with: CD3-APC-Cy7 (SP34-2), CD4-V500 (L200), CD8-PE (SK1), CD14-BV570 (M5E2) (BioLegend, San Diego, CA), CD28-PE-CF594 (CD28.2), CD69-BV421 (FN50), CD95-PE-Cy5 (DX2), PD-1-PE-Cy7 (EH12.2H7) (BioLegend); all antibodies were from BD Biosciences, unless otherwise stated. PBMCs were then lysed with PhosFlow Lyse/Fix buffer (BD Biosciences) for 30 min and permeabilized with Perm Buffer [0.4% Triton X-100 in PBA (Sigma)] for 10 min, followed by washing. Permeabilized PBMCs were stained with the following antibodies for intracellular markers: Ac-H4 (3HH4-2C2) (Active Motif, Carlsbad, CA, USA) and Ki-67-Alexa Flour 647 (BD Biosciences). Ac-H4 recognizes motifs on histones H3 and H4 and was conjugated to FITC using Zenon reagent kit (Invitrogen, Carlsbad, CA). Stained PBMCs were then washed, fixed with BD Stabilizing Fixative (BD Biosciences), and acquired with a LSR-II flow cytometer. Data were analyzed with FlowJo software.

[2] = test system: PBMCs; assay: In vitro RMD impact on cell surface markers of PBMCs; assay type: cell-based, rhesus macaques; details: for CD3 expression (% of cells) on PBMCs: n = 3
Procedure: To assess the RMD impact on the expression of cellular and homing markers, fresh PBMCs collected from 3 SIV-naïve RMs were subjected to either no RMD treatment or escalating doses of RMD (2, 10, and 20 ng/ml). The PBMCs were incubated with RMD in RPMI1640 supplemented with 1% Penicillin/Streptomycin, 1% HEPES buffer, 1% L-glutamine, and 5% heat-inactivated bovine calf serum for 0, 1, 2, or 5 days. PBMCs were then stained with CD3-V500, CD4-Alexa Flour 700 (L200), CD8-PE-CF594, CCR4-PE-Cy7 (1G1), CCR5-APC (3AP), CCR7-PE (3D12), CCR9-FITC (112509) (R&D Systems, Minneapolis, MN, USA), β7-PE-Cy5 (FIB504), and LIVE/DEAD Fixable Blue Dead Cell Stain Kit (Thermo Fisher Scientific); all antibodies were from BD Biosciences unless otherwise noted. Stained PBMCs were acquired on a LSR-II and data were analyzed with FlowJo software (TreeStar).

Question: What does the source list for C/C=C1\NC(=O)[C@H]2CSSCC/C=C/[C@H](CC(=O)N[C@H](C(C)C)C(=O)N2)OC(=O)[C@H](C(C)C)NC1=O [RMD, romidepsin]?
Answer: time of return of histone acetylation to near baseline level ([1]; CD4+ and CD8+ T cells, all RMs): ≤ 5 days postinfusion; time of peak H3/H4 histone acetylation in blood CD4+ and CD8+ T cells ([1]; third RM (RM33)): 1 day postinfusion; time of peak H3/H4 histone acetylation in blood CD4+ and CD8+ T cells ([1]; two of three RMs): 6 h postinfusion; CD3 expression (% of cells) on PBMCs ([2]; 2 ng/ml RMD, day 2, baseline 50%, no RMD 66%): 48%; CD3 expression (% of cells) on PBMCs ([2]; 2 ng/ml RMD, day 5, baseline 50%, no RMD 61%): 20%; CD3 expression (% of cells) on PBMCs ([2]; 10 ng/ml RMD, day 2, baseline 50%, no RMD 66%): 30%; CD3 expression (% of cells) on PBMCs ([2]; 10 ng/ml RMD, day 5, baseline 50%, no RMD 61%): 16%; CD3 expression (% of cells) on PBMCs ([2]; 20 ng/ml RMD, day 2, baseline 50%, no RMD 66%): 32%; CD3 expression (% of cells) on PBMCs ([2]; 20 ng/ml RMD, day 5, baseline 50%, no RMD 61%): 19%; CD3 expression (% of cells) on PBMCs ([2]; day 1, all dosage treatments (2, 10, 20 ng/ml)): minimal changes; proportions of CD4− CD8− CD3+ T cells ([2]; with increasing dosages of RMD (2, 10, 20 ng/ml), p < 0.05): increased proportions
